{"source": "patent US11187690B2", "about": "“Synthetic receptors for hydrosulfide” (University of Oregon, priority 2016, dated 2021)", "key": {"[1]": {"test": "1H NMR comparison titration with NBu4Cl (Cl^− binding)", "settings": "10% DMSO-d6/CD3CN", "source_text": "(§1) The higher selectivity is likely due to the pyridine lone pair acting as a hydrogen bond acceptor, which provides an additional stabilizing interaction for HS^− and a destabilizing interaction for Cl^−. The phenyl core of host 1 donates a hydrogen bond to both anionic guests, resulting in decreased selectivity for hydrosulfide, even if this CH hydrogen bond is an important component to the high overall binding energy."}, "[2]": {"test": "UV-Vis titration with NBu4SH in MeCN (HS^− binding)", "settings": "for HS^− binding constant: no DMSO co-solvent, 10 μM host", "method": "(§2) To further investigate the difference in anion selectivity, binding constants were also measured at lower concentrations by UV-Vis spectroscopy in MeCN; the data are summarized in Table 1.\nWe expected that removal of the DMSO co-solvent would increase the observed binding affinities since acetonitrile is a slightly less competitive solvent (especially as a hydrogen bond acceptor)."}, "[3]": {"test": "1H NMR titration with NBu4SH (HS^− binding)", "settings": "10% DMSO-d6/CD3CN; for selectivity for HS^− over Cl^−: 1H NMR titration data", "method": "To investigate whether HS^− is a suitable anionic guest for compounds 1-3, we titrated NBu4SH into 0.5-1.0 mM solution of each host in 10% DMSO-d6/CD3CN and monitored the titrations by ^1H NMR spectroscopy. […] For example, upon addition of HS^− to a 0.988 mM solution of 1, the aryl CHa shifted from 7.99 to 9.24 ppm, and the NHb and NHc urea protons shift downfield from 7.94 and 8.92 to 8.63 and 11.18 ppm, respectively. […] We also confirmed that the observed changes in the NMR spectra upon HS^− addition were not merely due to deprotonation of the urea NH groups. […] Titration data of HS^− with the host fit to simple 1:1 binding isotherm models, and a new, upfield-shifted peak appears for bound hydrosulfide.\nas §1"}, "[4]": {"test": "UV-Vis titration with NBu4Cl in MeCN (Cl^− binding)", "method": "as §2"}, "[5]": {"test": "Reversibility of HS^− binding (NBu4SH then Zn(OAc)2, 1H NMR)", "settings": "hydrogen-bond binding; for 1: 1.0 mM in 10% DMSO-d6/CD3CN, 2 equiv NBu4SH, 4 equiv Zn(OAc)2, 5 more equiv NBu4SH"}, "[6]": {"test": "13C{1H} NMR check of alkyne reactivity toward HS^−", "format": "physicochemical", "settings": "2.3 mM host, 10 equivalents of HS^−"}}, "data": [{"molecule": "COc1ccc(NC(=O)Nc2ccc(C(C)(C)C)cc2C#Cc2cccc(C#Cc3cc(C(C)(C)C)ccc3NC(=O)Nc3ccc(OC)cc3)c2)cc1", "note": "[Host 1]", "values": [{"measurement": "Cl^− ΔG", "setting": "[1]", "value": -4.43, "unit": "kcal/mol"}, {"measurement": "HS^− ΔG", "setting": "[2]", "value": -6.76, "unit": "kcal/mol"}, {"measurement": "selectivity HS^−:Cl^−", "setting": "[2]; UV-Vis", "value": "remained similar to the 10% DMSO-d6/CD3CN system"}, {"measurement": "HS^− binding constant", "setting": "[2]; UV-Vis", "value": "90,300 M^−1"}, {"measurement": "HS^− ΔG", "setting": "[3]", "value": -5.05, "unit": "kcal/mol"}, {"measurement": "selectivity for HS^− over Cl^−", "setting": "[3]", "value": 2.8, "unit": "fold"}, {"measurement": "Cl^− ΔG", "setting": "[4]", "value": -6.18, "unit": "kcal/mol"}, {"measurement": "reversibility of HS^− binding", "setting": "[5]", "value": "confirming the reversibility of binding"}, {"measurement": "reactivity of host alkynes toward HS^−", "setting": "[6]", "value": "alkynes were unreactive toward HS^−"}]}, {"molecule": "COc1ccc(NC(=O)Nc2ccc(C(C)(C)C)cc2C#Cc2cccc(C#Cc3cc(C(C)(C)C)ccc3NC(=O)Nc3ccc(OC)cc3)n2)cc1", "note": "[Host 2]", "values": [{"measurement": "Cl^− ΔG", "setting": "[1]", "value": -3.19, "unit": "kcal/mol"}, {"measurement": "HS^− ΔG", "setting": "[2]", "value": -5.86, "unit": "kcal/mol"}, {"measurement": "HS^− binding constant", "setting": "[2]; UV-Vis", "value": "~25,000 M^−1"}, {"measurement": "HS^− ΔG", "setting": "[3]", "value": -4.15, "unit": "kcal/mol"}, {"measurement": "selectivity for HS^− over Cl^−", "setting": "[3]", "value": 6, "unit": "fold"}, {"measurement": "Cl^− ΔG", "setting": "[4]", "value": -4.35, "unit": "kcal/mol"}]}, {"molecule": "CC(C)(C)c1ccc(NC(=O)Nc2ccccc2)c(C#Cc2cccc(C#Cc3cc(C(C)(C)C)ccc3NC(=O)Nc3ccccc3)n2)c1", "note": "[Host 3]", "values": [{"measurement": "Cl^− ΔG", "setting": "[1]", "value": -3.19, "unit": "kcal/mol"}, {"measurement": "HS^− ΔG", "setting": "[2]", "value": -6.07, "unit": "kcal/mol"}, {"measurement": "HS^− binding constant", "setting": "[2]; UV-Vis", "value": "~25,000 M^−1"}, {"measurement": "HS^− ΔG", "setting": "[3]", "value": -4.25, "unit": "kcal/mol"}, {"measurement": "selectivity for HS^− over Cl^−", "setting": "[3]", "value": 6, "unit": "fold"}, {"measurement": "Cl^− ΔG", "setting": "[4]", "value": -4.20, "unit": "kcal/mol"}]}]}
